This is an account of results in US11478467B2 (priority 2017, dated 2022).

Like-named read-outs stand apart in the source and are kept apart here.

The format of series [1] is in vivo, rat. The note with it: 10 mg/kg intraperitoneally, male SD rats. On the procedure:
Adult male SD rats were pretreated with the compound 146 or M1 (10 mg/kg intraperitoneally) and the brain and blood plasma were collected 30, 60, 120 and 240 min after M1 administration. The amount of compound in brain tissue extracts was measured using the UPLC/MS analysis.

The nature of series [2]: Pharmacokinetic study of sarpogrelate hydrochloride i.v. in rats. The format is in vivo, rat. The note with it: after sarpogrelate hydrochloride 2 mg/kg i.v. On the procedure:
Pharmacokinetic study was performed in male Wistar rats equipped with the jugular vein cannulas. Sarpogrelate hydrochloride was formulated in Pharmasolv: PBS buffer (5:95) mixture and administered at the dose of 2 mg/kg intravenously. Blood samples were collected from the jugular vein using heparin as anticoagulant at the scheduled time-points: 5 min, 15 min, 30 min, 1 h, 1.5 h, 2 h, 4 h, and 6 h. An LC-MS/MS bioanalytical method was used for the simultaneous quantification of sarpogrelate and M1 in plasma samples. […] Formation of M1 metabolite of sarpogrelate was rapid as the highest M1 concentrations were measured at the first sampling time points.

Series [3] has as its target CYP2D6 (Homo sapiens (Human), UniProt P10635). The note with it: dextromethorphan as substrate; cited from earlier work.
The subject of series [4] is Parkinson's disease psychosis. The note with it: cited from earlier work.
Series [5] concerns MK-801-induced hyperactivity. The note with it: 0.1 and 0.3 mg/kg s.c.; MK-801 0.3 mg/kg i.p.; mice; cited from earlier work.
The conditions of series [6]: cited from earlier work; for basal insulin secretion: mouse or human islets or in vivo.
The test system of series [7] is NMDA receptors. The note with it: compared to that of DEX; cited from earlier work.
The test system of series [8] is locomotor activity, stereotypy, ataxia. The note with it: rats, cited from earlier work; for PCP-elicited hyperactivity / motor behaviors after pretreatment: 10 mg/kg PCP; for behavioral effects given alone (locomotor hyperactivity, stereotypy, ataxia): DO 15-120 mg/kg, DEX 15-120 mg/kg, PCP 1.25-20 mg/kg.
For series [9] the following is noted: cited from earlier work.
For series [10], the system named is rat primary mixed mesencephalic neuron-glia cultures. The note with it: 1-10 micro M; cited from earlier work.
For series [11] the following is noted: high doses; cited from earlier work.
Series [12] relates to PCP-induced hyperactivity. Description: Phencyclidine-induced hyperactivity in rats (sarpogrelate and dextromethorphan). The series is classed as in vivo, rat. The note with it: dextromethorphan by itself.
Series [13] is described as follows: Blood glucose levels and oral glucose tolerance in rats. The series is classed as in vivo, rat. The note with it: given alone, intraperitoneal. On the procedure:
Test substances were administered to male Wistar (Han) rats (180-280 g at the beginning of the experiments; Janvier Labs) housed in groups under free access to food and water. After overnight food deprivation, the tip of the tail was cut, each rat was weighed, housed individually and left without stress in a quiet room. Approximately 1 hour later, baseline blood glucose was measured from a drop of blood collected from the tail tip, using a commercially available glucose-meter (OneTouch®, Lifescan) and then rats received intraperitoneal injection of sarpogrelate and/or dextromethorphan and 30 min later blood glucose was measured again and rats immediately challenged with glucose at 2 g/kg by oral gavage. Then, blood glucose was measured at 6 time-points until 180 minutes post-glucose challenge.

For series [14], the system named is insomnia. The note with it: human, in vivo; cited from earlier work.
For series [15], the system named is treatment-resistant major depressive disorder. The note with it: in vivo; cited from earlier work.
For series [16], the system named is generalized anxiety disorder. The note with it: human, in vivo; cited from earlier work.
For series [17] the following is noted: dose-range that covers therapeutically relevant exposures; cited from earlier work.
For series [18], the system named is 5-HT2A/5-HT2C receptors. The note with it: in vivo; cited from earlier work.
Series [19] deals with dopamine D2 receptors (Homo sapiens (Human), UniProt P14416). The note with it: cited from earlier work.
Sequence of dopamine D2 receptors (P14416 whole entry): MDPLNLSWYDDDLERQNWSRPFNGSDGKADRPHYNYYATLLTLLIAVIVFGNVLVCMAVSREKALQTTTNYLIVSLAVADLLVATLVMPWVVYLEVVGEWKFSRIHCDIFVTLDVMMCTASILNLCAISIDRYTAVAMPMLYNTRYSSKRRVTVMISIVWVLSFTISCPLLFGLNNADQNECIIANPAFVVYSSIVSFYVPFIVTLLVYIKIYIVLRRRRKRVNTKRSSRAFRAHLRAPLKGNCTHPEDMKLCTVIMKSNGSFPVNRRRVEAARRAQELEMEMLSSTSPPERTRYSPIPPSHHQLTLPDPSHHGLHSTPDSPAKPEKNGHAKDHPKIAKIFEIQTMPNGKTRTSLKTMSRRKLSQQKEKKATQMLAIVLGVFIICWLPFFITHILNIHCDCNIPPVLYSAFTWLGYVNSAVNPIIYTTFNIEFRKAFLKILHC

Sequence of CYP2D6 (P10635 whole entry): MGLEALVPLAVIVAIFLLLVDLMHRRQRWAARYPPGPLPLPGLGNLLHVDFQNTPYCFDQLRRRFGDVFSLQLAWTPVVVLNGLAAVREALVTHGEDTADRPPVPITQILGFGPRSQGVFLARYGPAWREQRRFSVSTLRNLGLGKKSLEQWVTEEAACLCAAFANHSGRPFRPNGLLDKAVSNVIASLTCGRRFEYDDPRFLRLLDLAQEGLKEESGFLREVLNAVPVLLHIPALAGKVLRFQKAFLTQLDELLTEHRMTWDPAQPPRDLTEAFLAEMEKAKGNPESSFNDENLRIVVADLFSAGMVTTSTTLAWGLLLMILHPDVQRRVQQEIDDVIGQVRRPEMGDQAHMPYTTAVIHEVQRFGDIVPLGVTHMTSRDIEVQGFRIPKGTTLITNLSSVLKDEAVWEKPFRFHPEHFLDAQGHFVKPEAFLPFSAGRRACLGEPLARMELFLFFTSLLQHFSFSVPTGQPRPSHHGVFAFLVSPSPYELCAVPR

On to `COc1cccc(CCc2ccccc2OCC(O)CN(C)C)c1` (racemic) [Compound 146, 1-(dimethylamino)-3-(2-(3-methoxyphenethyl)phenoxy)propan-2-ol], for which, in [1] (30, 60, 120 and 240 min), the “total brain concentration vs blood concentration” value was “significantly exceeded the blood concentration”. Besides, the “penetration into the brain” value in series [1] is listed as “readily penetrates into the brain”. Moreover, the “Formation of M1 metabolite of sarpogrelate” value in series [2] was “rapid”. Also, the M1/sarpogrelate ratio in series [2] (plasma) is reported as 2.98±0.597%. Also, the “inhibition type (Dixon plots)” value in series [3] is “fit well to all competitive inhibition types”.
In the case of `CC(C)COc1ccc(CNC(=O)N(Cc2ccc(F)cc2)C2CCN(C)CC2)cc1` [ACP-103, N-(4-fluorophenylmethyl)-N-(1-methylpiperidin-4-yl)-N′-(4-(2-methylpropyloxy)phenylmethyl) carbamide (2R,3R)-dihydroxybutanedioate (2:1)], the “night-time sleep and daytime wakefulness” value in series [4] (compared with placebo) is “improvements on night-time sleep and daytime wakefulness”. Further, the “psychotic symptoms (hallucinations and delusions)” value in series [4] (patients with moderate to severe Parkinson's disease) is listed as “significantly reduced psychotic symptoms”. Moreover, the MK-801-induced hyperactivity result in series [5] is on record as “significantly attenuated MK-801-induced hyperactivity”.
With `CN1CC[C@@]23CCCC[C@@H]2[C@@H]1Cc1ccc(O)cc13` [DO, dextrorphan], the basal insulin secretion entry in series [6] is “did not significantly alter basal insulin secretion”. Besides, the “affinity for NMDA receptors” value in [7] was “substantially higher affinity”. Moreover, in series [8], the “PCP-elicited hyperactivity / motor behaviors after pretreatment” value is “facilitated”; the “behavioral effects given alone (locomotor hyperactivity, stereotypy, ataxia)” value was “dose-dependent locomotor hyperactivity, stereotypy and ataxia”. In series [8] (listed as dextrorphan), the “PCP-elicited hyperactivity / motor behaviors after pretreatment” value is recorded as “but not its metabolite dextrorphan”.
Turning to `COc1ccc2c(c1)[C@@]13CCCC[C@H]1[C@@H](C2)N(C)CC3` [dextromethorphan, 3-methoxy-17-methylmorphinan], in series [9] (270 mg DEX vs placebo), the “area under the curve of blood glucose concentrations within the first 2 h of the OGTT (glucose AUC1-3 h)” value is “significantly (P<0.05) smaller”. Further, the “maximal serum insulin concentrations following oral glucose intake” value in series [9] (60 and 270 mg DEX vs placebo) is given as “significantly (P<0.05) higher maximal serum insulin concentrations”. Moreover, in series [9] (single oral dose 60 or 270 mg, males with T2DM on metformin), the “fasting serum insulin and fasting blood glucose concentrations” value is on record as “led to neither higher fasting serum insulin concentrations nor lower fasting blood glucose concentrations”. Further, the severe hypoglycemic events entry in [9] (up to a dose of 270 mg) is listed as “did not provoke any severe hypoglycemic events”. For the same compound, the “glucose-induced plasma insulin concentrations and glucose tolerance” value in series [6] (DEX via drinking water 4 mg/ml overnight, glucose i.p., mice) was “significantly higher glucose-induced plasma insulin concentrations and glucose tolerance”. Besides, in series [6] (DEX via drinking water 4 mg/ml overnight, mice), the “basal plasma insulin and fasting blood glucose concentrations” value is listed as “changed neither basal plasma insulin nor fasting blood glucose concentrations”. For the same compound, in series [6], the basal insulin secretion result is “did not significantly alter basal insulin secretion”. Also, the “PCP-elicited hyperactivity / motor behaviors after pretreatment” value in [8] was “attenuate phencyclidine-induced motor behaviors”; in series [8] (listed as DEX), “dose-dependently inhibited”. Moreover, the “behavioral effects given alone (locomotor hyperactivity, stereotypy, ataxia)” value in series [8] is recorded as “induced moderate hyperactivity only at the higher doses”. The “protection of dopamine neurons” value in [10] is recorded as “protected dopamine neurons against lipopolysaccharide (LPS)-induced reduction of dopamine uptake”. Also, in series [11], the “heart rate, blood pressure, temperature, and plasma bromide” value is “mild elevations of heart rate, blood pressure, temperature, and plasma bromide”. For the same compound, the “motor activity in PCP-treated rats” value in [12] (oral administration) is reported as “enhanced”; in series [12] (subcutaneous administration), “reduced”. The “blood glucose level (AUC 30-180 min after oral glucose 2 g/kg)” value in [13] is recorded as “significantly reduced blood glucose level”.
With `CN(C)CCO/N=C(/C=C/c1ccc(O)cc1)c1ccccc1F` [eplivanserin], in series [14], the “clinical efficacy in insomnia” value is on record as “demonstrated clinical efficacy in patients with insomnia”.
`CNC1(c2ccccc2Cl)CCCCC1=O` (stereo not shown) [ketamine, 2-(2-chlorophenyl)-2-(methylamino)cyclohexan-1-one]: the antidepressant activity entry in series [15] was “rapid and robust antidepressant activity”.
As for `COC(=O)c1c2n(c3ccccc13)Cc1ccccc1N1CCN(C)CC21.Cl` (stereo not shown) [serazepine], the “efficacy in generalized anxiety disorder” value in series [16] is reported as “shown efficacy”.
As to “N,N-dimethyl-2-[[(1R,3S,4R)-4,7,7-trimethyl-3-phenyl-3-bicyclo[2.2.1] heptanyl] oxy]ethanamine [Compound 829]”, in series [17], the prolactin result is reported as “not found to elevate prolactin”. For the same compound, the “down-regulation of 5-HT2A/5-HT2C receptors” value in [18] is “does not induce down-regulation of these receptors”. For the same compound, in [19], the “selectivity against dopamine D2 receptors” value is listed as “at least 10 fold”.
